According to paper PMC11314561, “Design and Synthesis of Novel Aminoindazole-pyrrolo[2,3-b]pyridine Inhibitors of IKKα That Selectively Perturb Cellular Non-Canonical NF-κB Signalling” (Molecules, 2024):
Like-named read-outs stand apart in the source and are kept apart here.

Test: In vivo murine PK
Conditions: mouse, plasma, CD1 mice, 10 mg/kg, mean; for half-life: read-out: Terminal t1/2 (converted)
Method: Ta b l e S2. in vivo murine PK parameters for 6g [SU1349]. In vivo PK studies were performed by Shanghai ChemPartner Co. Ltd. (Shanghai, 201203 CN) Each route of administration involved three CD1 mice all receiving a single dose, with mean values reported. The IV/IP dosing solution was prepared in 10% DMAC+ 10% Solutol HS15+ 80% (15% of HP-β-CD) in water. BQL: Below quantiϐiable limit of 1 ng/mL for SU1349 in CD1 mouse plasma. All BQL data was excluded from mean value concentration and graphing. Plasma concentrations were determined on an LCMSMS-010 (API4000, triple quadruple) instrument using Positive Ion, ESI MS conditions, with deaxamethasone as an internal standard. Intravenous time points were taken at 5 min, 15 min, 30 min, 1, 2, 4, 8, and 24 hours and intraperitoneal time points were taken at 15 min, 30 min, 1, 2, 4, 6, 8, […]
Administration Dose Mean PK parameters
Clearance Terminal Vss Cmax Tmax F

Cmax (ip, I.P.): 199 ng/mL | Tmax (ip, I.P.): 0.44 h | bioavailability (ip, I.P.): 9.3% | half-life (ip, I.P.): 3.02 h | clearance (iv, I.V.): 16.7 mL/min/kg | half-life (iv, I.V.): 4.18 h | Vd (iv, I.V., read-out: Vss): 0.39 L/kg
SMILES: Nc1n[nH]c2ccc(-c3ccnc4[nH]c(-c5ccnc(OCc6ccccc6)c5)cc34)cc12 [Compound 6g [SU1349]]
